In US20220402874A1, “SOLID FORMS OF OMECAMTIV MECARBIL DIHYDROCHLORIDE AND PROCESSES THEREOF” (DR. REDDY'S LABORATORIES LIMITED, priority 2019, published 2022):
Structures can show the parent of a compound that is named as a salt. Blank lines part the entries; values can stand above or below the compound they belong to.

Key:
[1] = storage stability of the solid form in a closed container (PXRD); type: physicochemical
Protocol: Further, the premix of amorphous solid dispersion with Soluplus is also unstable as depicted in FIG. 8.
In another aspect, the present application provides a crystalline Form OMT-D of Omecamtiv mecarbil dihydrochloride, characterized by a PXRD pattern comprising the peaks at about 12.98, 15.79, 18.55 and 25.63°±0.2° 2θ. In embodiments, the crystalline Form OMT-D of Omecamtiv mecarbil dihydrochloride is characterized by an additional peak at about 20.41°±0.2° 2θ. In embodiments, the application provides crystalline Form OMT-D of Omecamtiv mecarbil dihydrochloride, characterized by a PXRD pattern of FIG. 14. In embodiments, crystalline Form OMT-D of Omecamtiv mecarbil dihydrochloride is a solvate with dimethyl sulfoxide. In embodiments, crystalline Form OMT-D is monosolvate with dimethyl sulfoxide. In embodiments, crystalline Form OMT-D is stable for atleast 45 days stored in a closed container. In embodiments, the crystalline Form OMT-D is characterized by a thermogram of FIG. 16.

[2] = described in the '270 application; cited from earlier work

- stable for at least (time stored) ([1]; stored in a closed container): ≥ 45 days
Structure (SMILES): COC(=O)N1CCN(Cc2cccc(NC(=O)Nc3ccc(C)nc3)c2F)CC1 [Form OMT-D, Omecamtiv mecarbil dihydrochloride]

- stability of amorphous state (result in words) ([1]; as depicted by PXRD in FIG. 5 / FIG. 8): unstable
Structure (SMILES): COC(=O)N1CCN(Cc2cccc(NC(=O)Nc3ccc(C)nc3)c2F)CC1 [Omecamtiv mecarbil dihydrochloride]

Structure (SMILES): COC(=O)N1CCN(Cc2cccc(NC(=O)Nc3ccc(C)nc3)c2F)CC1 [anhydrous form B, Omecamtiv mecarbil dihydrochloride]
- stability of crystalline form (result in words) [2]: metastable
